Laboratory results as given in patent publication US11202773B2, “Locally bioavailable drugs” (UNIVERSITY OF HOUSTON SYSTEM, priority 2015, dated 2021).

Columns and labels:
[1] = Solubility in HBSS with or without β-cyclodextrin; format: physicochemical
human Colon S9 [2] = experiment: Sulfation by human colon S9; format: in vitro ADME; details: substrate 10 μM
Method: (§1) FIG. 5D is a bar graph illustrating in vitro metabolism of phenolics. Glucuronidation rates of 6a1-6a4 by human liver and intestinal microsomes. Additional metabolic rates of various locally bioavailable COX-2 inhibitors are in Table 4. […]. The incubation systems were: for glucuronidation, 0.88 mM magnesium chloride (MgCl2), 4.4 mM saccharolactone, 0.022 mg/mL alamethicin, 3.5 mM uridine 5′-diphospho-glucuronic acid (UDPGA), 10 μM substrates and different concentrations of microsomes in 50 mM potassium phosphate buffer (pH 7.4); for sulfation, 10 mM dithiothreitol (DTT), 5 mM MgCl2, 100 μM 3′-phosphoadenosine-5′-phosphosulfate (PAPS),10 μM substrate and different concentrations of S9 fractions in 50 mM potassium phosphate buffer (pH 7.4).
(§2) In vitro tools were employed to help predict the in vivo metabolism rates of the COX-2 inhibitors that are phenolics. The microsomes and S9 fractions prepared from colon or liver were used to determine the in vivo glucuronidation and sulfation rates of the phenolic compounds, respectively. By employing microsomes and S9 fractions prepared from both rats and humans, it could be determined if the results obtained in the rat model could be reasonably extrapolated to humans. In these experiments, raloxifene and genistein, two phenolic compounds which undergo extensive first-pass metabolism, were selected as controls.

Raw264.7 cells = experiment: Metabolism of the phenolics by Raw264.7 cells; format: in vitro ADME, mouse; details: 1 μM compound, 14 hours
Method: FIG. 4A is a bar graph illustration of the metabolism of the phenolics by Raw264.7 cells. Raw264.7 cells were incubated with 0.1 μg/mL LPS and 1 μM 6a1, 6a2 or 6a3, respectively. 14 hours later the concentrations of PGD2, the phenolics (i.e., aglycones, solid bars), and their phase II metabolites (open bars for glucuronides and shade bars for sulfates) were determined in the medium. Less PGD2 production means inhibition of COX-2 enzyme.
Glucuronidation of 6a1 in Raw264.7 cells was not influenced by LPS (FIG. 4B). […] The results of these experiments initially indicate that when characterizing inhibitory effects of the phenolics on COX-2, the importance of metabolic stability should be brought into consideration. This could be why phenolics were not considered to be active against COX-2 in many published reports using cellular COX-2 assays.

[3] = rat, in vivo
Method: For this purpose, blood samples were collected from each rat every hour during the perfusion period, and the bile samples were also collected by cannulating the bile duct.
By comparing the 6a1 concentrations in the input and output perfusate containing β-CD-formulated 6a1, the amounts of 6a1 absorbed from the colon were calculated for each hour during the perfusion period (FIG. 10B).

[4] = test system: human intestine microsomes; experiment: Glucuronidation by human intestine microsomes; format: in vitro ADME
Method: as §1, §2

Caco-2 cell monolayer = experiment: Metabolism and transport across Caco-2 cell monolayers; format: in vitro ADME, human; details: 0-8 hours
Method: The Caco-2 cell monolayer is a well-established FDA-recognized model to study the absorption, transport, and metabolism of drugs in the human gastrointestinal tract. This allows for prediction of the disposition of the new compounds in colonic epithelium that is also undergoing carcinogenesis, because Caco-2 is a human colorectal cancer cell line.
After 10 μM 6a1 was applied to the apical or basolateral side of the Caco-2 monolayer model, the concentrations of 6a1 and its main phase II metabolites, glucuronide and sulfate, were monitored at both sides (FIG. 6A-D). The concentration of aglycone was also monitored at both sides. […] The majority of sulfates were effluxed to the apical side, while less was transported to the basolateral side. The amount of glucuronide generated by Caco-2 cells was much less than that of sulfates. The glucuronide was also transported to both sides.

rat liver microsomes = experiment: Glucuronidation by rat liver microsomes; format: in vitro ADME
Method: as §1, with “FIG. 5A” for “FIG. 5D”, “of phenolics via glucuronidation pathway.” for “of phenolics.”, “of all the new locally bioavailable COX-2 inhibitors” for “of 6a1-6a4”, “by rat” for “by human”, “liver” for “liver and intestinal”, “Table 3.” for “Table 4.”
as §2

human COX-2 = target: T1, human COX-2 (Homo sapiens, UniProt P35354); experiment: In vitro enzyme assay, recombinant human COX-2 (PGE2 production); format: biochemical; details: for IC50: read-out: IC50 against recombinant human COX-2; for Inhibition of COX-2 enzyme (PGE2 production, FIG. 3A): result in words
T1 sequence (P35354 18-604): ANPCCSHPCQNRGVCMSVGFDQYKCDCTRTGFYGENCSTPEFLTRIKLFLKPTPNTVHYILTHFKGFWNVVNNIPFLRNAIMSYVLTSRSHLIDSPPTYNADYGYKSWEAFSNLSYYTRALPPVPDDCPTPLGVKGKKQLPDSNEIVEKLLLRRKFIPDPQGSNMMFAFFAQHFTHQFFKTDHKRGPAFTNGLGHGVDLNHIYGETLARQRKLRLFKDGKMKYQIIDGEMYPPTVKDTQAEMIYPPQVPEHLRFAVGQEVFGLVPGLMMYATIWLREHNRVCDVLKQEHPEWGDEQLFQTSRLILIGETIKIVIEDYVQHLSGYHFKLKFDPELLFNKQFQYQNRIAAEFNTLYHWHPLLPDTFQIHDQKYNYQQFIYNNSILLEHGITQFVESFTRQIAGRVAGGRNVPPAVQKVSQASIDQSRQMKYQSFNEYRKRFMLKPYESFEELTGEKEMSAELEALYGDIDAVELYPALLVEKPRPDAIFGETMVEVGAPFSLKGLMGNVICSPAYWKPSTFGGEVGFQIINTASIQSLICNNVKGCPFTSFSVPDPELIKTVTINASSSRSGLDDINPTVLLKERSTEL
Excerpt: FIG. 3A is a bar graph illustration of PGE2 production by recombinant human COX-2 enzyme in the presence of the new compounds. Less PGE2 production means inhibition of COX-2 enzyme.
FIG. 3B is a bar graph illustration of PGE2 production by recombinant human COX-2 enzyme in the presence of the metabolites of the new compounds. Less PGE2 production means inhibition of COX-2 enzyme.

human Colon S9 [5] = experiment: Glucuronidation by human colon S9; format: in vitro ADME; details: substrate 10 μM
Method: as §1
as §2, with “The microsomes and S9 fractions prepared from colon or liver were used to determine the in vivo glucuronidation and sulfation rates of the phenolic compounds, respectively.” left out

Row | Osmotic pressure of the solution ([1]; 6a1 in HBSS with 4 mM β-CD) [mOsm/kg] | Solubility in HBSS ([1]; in the presence of 4 mM β-CD, after sonication and centrifuge) [µM] | Sulfation rates by human Colon S9 (Mean) (human Colon S9 [2]) [pmol/mg/min] | 6a1-glucuronide concentration in bile [3] | Absorbed amount recovered from bile as glucuronides [3] | Fraction absorbed in the colon that escaped first-pass metabolism in the liver [3] | Fraction of total perfused amount absorbed in the colon [3] | Glucuronidation rates by intestine microsomes (Mean) [4] [pmol/mg/min] | Phase II conjugation inside Caco-2 cells (Caco-2 cell monolayer; 10 μM) | Glucuronidation by rat liver microsomes (FIG. 5A) (rat liver microsomes) | Glucuronidation rates by liver microsomes (Mean) (rat liver microsomes) [pmol/mg/min] | IC50 (human COX-2) [nM] | Inhibition of COX-2 enzyme (PGE2 production, FIG. 3A) (human COX-2) | Glucuronidation rates by human Colon S9 (Mean) (human Colon S9 [5]) [pmol/mg/min] | Structure (SMILES) | Form recovered in medium at the end of incubation (Raw264.7 cells) | Permeation of the Caco-2 cell membrane (Caco-2 cell monolayer; 10 μM applied to apical or basolateral side)
1 | 290 | 70 | 110 | more than 200 μM | approximately 75% | less than 1% | Approximately 13% | 2786 | rapidly conjugated by UGTs and SULTs | rapidly glucuronidated | 6299 | 118 | effective inhibitors | 1080 | Cc1ccc(-c2cc(COc3ccccc3O)nn2-c2ccc(S(N)(=O)=O)cc2)cc1 [Compound 6a1] | recovered exclusively as their glucuronides | permeated the Caco-2 cell membrane easily
2 | – | – | – | – | – | – | – | 924 | – | rapidly glucuronidated | 3570 | 201 | effective inhibitors | – | Cc1ccc(-c2cc(COc3cccc(O)c3)nn2-c2ccc(S(N)(=O)=O)cc2)cc1 [Compound 6a2] | recovered exclusively as their glucuronides | –
3 | – | – | – | – | – | – | – | 45 | – | – | 590 | 1080 | effective inhibitors | – | Cc1ccc(-c2cc(COc3ccc(O)cc3)nn2-c2ccc(S(N)(=O)=O)cc2)cc1 [Compound 6a3] | stayed as aglycone | –
